Source: patent US20120219615A1, “Therapeutic Use of a TLR Agonist and Combination Therapy” (The Trustees of the University of Pennsylvania, priority 2010, published 2012)

System: OVCAR5 cells
Experiment: OVCAR5 apoptosis by annexin-V and 7AAD staining
Assay type: cell-based, human
Experimental: Cell viability Annexin V/7AAD: To detect apoptosis, tumor cells were stained with annexin V/7AAD (BD Pharmingen #559763). Apoptotic cells were analyzed by flow cytometry according to the manufacturer's protocol. Briefly, OVCAR5 cells grown and subjected to different treatments were collected and pelleted at 1200 rpm and then washed twice with ice-cold PBS and re-suspended in a binding buffer (Pharmingen #51-66121 E) at a concentration of 1×10^6 cells/mL; 100 μL of the solution (1×10^5 cells) was transferred to each of two 5-mL culture tubes. Five μL of annexin V-PE (Pharmingen #51-65875Y) and added to each 100 μL solution, gently vortexed, incubated for 15 min at room temperature in the dark, washed with PBS, incubated with 5 μL of 7AAD (BD Pharmingen #51-68981E) for 10 minutes, and analyzed by FACS within 1 h.
Besides tumor-specific CTLs, TLR8 activation may also invoke innate anti-tumor responses, including the release of soluble mediators such as members of the TNF family, which can act directly on tumor cells to induce apoptosis. […] Expression of the TNFα receptor 1 (TNFR1) in OVCAR5 cells was tested and documented by Western blot (FIG. 5C). During the sensitivity test of OVCAR5 cells to TNFα, cells were incubated for 24 hours with 20 ng/ml of TNFα, a dose that exerts direct cytotoxic effects. […]

TNFα
TNFα-mediated apoptosis of OVCAR5 cells (20 ng/ml TNFα, 24 hours): resistant to TNFα-mediated apoptosis
apoptosis of OVCAR5 cells (PLD 1 μg/mL 24 h pre-incubation, then TNFα 20 ng/ml 12 h, or control media): minimal apoptosis
